# Tested on: Human MGC4172 (short-chain dehydrogenase/reductase, DHRS11)
# Assay: MGC4172 binders by thermal stabilisation, biophysical, DSF, SYPRO orange, recombinant human protein (AID 507)
# Details: at 100 µM, protein 2 µM, buffer 10 mM HEPES, pH 7.5, NaCl 150 mM, NADPH 200 µM, hits give high values
smiles,measurement,value
CN(CCOc1ccc(CC2SC(=O)NC2=O)cc1)c1ccccn1 (stereo unspecified),Tm shift,2.3 Celsius

# Reference: PubChem BioAssay AID507
